Source: patent publication US20240390298A1, “CYCLOHEXYL BETA-HYDROXY ALKYL AMINES AND MEDICAL USES THEREOF” (ATROGI AB, priority 2021, published 2024)
Where a name gives a salt, the structure may show the parent alone.

How the values were obtained:
L6-myotubes [1] = test: Glucose uptake in differentiated L6-myotubes (3H-2-deoxyglucose), compared to isoproterenol; type: cell-based; conditions: agonist 1×10^−5 M, 50 nM 3H-2-deoxyglucose
Summary of the method: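 Serum-starved differentiated L6 myotubes stimulated with agonist at 1×10^−5 M for 1 h 40 min, re-dosed in glucose-free medium for 20 min, then given 50 nM ^3H-2-deoxyglucose for 10 min. Uptake read by β-counting of NaOH lysates; activity expressed relative to isoproterenol.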

L6-myotubes [2] = test: Measurement of intracellular cAMP levels in differentiated L6 cells (alpha screen cAMP kit), compared to isoproterenol; type: cell-based; conditions: agonist 1×10^−5 M, 15 min; for Emax at 10 µM: Rattus norvegicus, L6, 0.25 h, read-out: Biological example 2: intracellular cAMP levels, activity compared to that of isoproterenol
Summary of the method: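 L6 myoblasts were differentiated into myotubes over 7 days in 2% FBS, then serum-starved overnight. Agonist at 1×10^−5 M final was applied for 15 min in HBSS with 1% BSA, 5 mM HEPES and 1 mM IBMX, pH 7.4. After ethanol extraction and lysis, cAMP was quantified by AlphaScreen, with activity expressed relative to isoproterenol.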

SMILES	Biological example 1: glucose uptake, activity compared to that of isoproterenol (L6-myotubes [1])	Emax at 10 µM (L6-myotubes [2]) [%]	Biological example 2: intracellular cAMP levels, activity compared to that of isoproterenol (L6-myotubes [2])
CC(=O)N[C@H]1CC[C@H](CC(C)(C)NC[C@H](O)c2cccc(C(F)(F)F)n2)CC1 [Example 151, N-((1S,4r)-4-(2-(((S)-2-Hydroxy-2-(6-(trifluoromethyl)pyridin-2-yl)-ethyl)amino)-2-methylpropyl)cyclohexyl)acetamide dihydrochloride]	+ + +	< 25	–
CC(C)(C[C@H]1CC[C@H](NS(C)(=O)=O)CC1)NC[C@H](O)c1cccc(C(F)(F)F)n1 [Example 152, N-((1S,4r)-4-(2-(((S)-2-Hydroxy-2-(6-(trifluoromethyl)pyridin-2-yl)-ethyl)amino)-2-methylpropyl)cyclohexyl)methanesulfonamide dihydrochloride]	+ +	< 25	–
CC(C)(C[C@H]1CC[C@H](NC(=O)OC(C)(C)C)CC1)NC[C@H](O)c1cccc(F)c1 [Example 153, tert-Butyl ((1R,4r)-4-(2-(((R)-2-(3-fluorophenyl)-2-hydroxyethyl)amino)-2-methylpropyl)cyclohexyl)carbamate]	+ + +	25 to 50	–
CC(C)(C[C@H]1CC[C@H](NC(=O)C(C)(C)C)CC1)NC[C@H](O)c1cccc(F)c1.Cl [Example 154, N-((1R,4r)-4-(2-(((R)-2-(3-Fluorophenyl)-2-hydroxyethyl)amino)-2-methylpropyl)cyclohexyl)pivalamide hydrochloride]	+ + +	25 to 50	–
CC(C)(C[C@H]1CC[C@H](NC(=O)C2CCC2)CC1)NC[C@H](O)c1cccc(F)c1.Cl [Example 155, N-((1R,4r)-4-(2-(((R)-2-(3-Fluorophenyl)-2-hydroxyethyl)amino)-2-methylpropyl)cyclohexyl)cyclobutanecarboxamide hydrochloride]	+ + +	–	+ +
CC(C)(C[C@H]1CC[C@H](NC(=O)C2CC2)CC1)NC[C@H](O)c1cccc(F)c1.Cl [Example 156, N-((1R,4r)-4-(2-(((R)-2-(3-Fluorophenyl)-2-hydroxyethyl)amino)-2-methylpropyl)cyclohexyl)cyclopropanecarboxamide hydrochloride]	+ + +	–	+ + +
CC(C)(C[C@H]1CC[C@H](NC(=O)C(F)(F)F)CC1)NC[C@H](O)c1cccc(F)c1.Cl [Example 157, 2,2,2-Trifluoro-N-((1R,4r)-4-(2-(((R)-2-(3-fluorophenyl)-2-hydroxyethyl)-amino)-2-methylpropyl)cyclohexyl)acetamide hydrochloride]	+ + +	25 to 50	–
CN(C)C(=O)N[C@H]1CC[C@H](CC(C)(C)NC[C@H](O)c2cccc(F)c2)CC1.Cl [Example 158, 3-((1R,4r)-4-(2-(((R)-2-(3-Fluorophenyl)-2-hydroxyethyl)amino)-2-methyl-propyl)cyclohexyl)-1,1-dimethylurea hydrochloride]	+ + +	–	+ + +
CCCS(=O)(=O)N[C@H]1CC[C@H](CC(C)(C)NC[C@H](O)c2cccc(F)c2)CC1 [Example 159, N-((1R,4r)-4-(2-(((R)-2-(3-Fluorophenyl)-2-hydroxyethyl)amino)-2-methylpropyl)cyclohexyl)propane-1-sulfonamide hydrochloride]	+ + +	25 to 50	–
CC(C)(C[C@H]1CC[C@H](NS(=O)(=O)C(F)(F)F)CC1)NC[C@H](O)c1cccc(F)c1 [Example 160, 1,1,1-Trifluoro-N-((1R,4r)-4-(2-(((R)-2-(3-fluorophenyl)-2-hydroxyethyl)-amino)-2-methylpropyl)cyclohexyl)methanesulfonamide hydrochloride]	+ + +	< 25	–
CC(C)(C[C@H]1CC[C@H](NS(=O)(=O)C2CC2)CC1)NC[C@H](O)c1cccc(F)c1 [Example 161, N-((1R,4r)-4-(2-(((R)-2-(3-Fluorophenyl)-2-hydroxyethyl)amino)-2-methypropyl)cyclohexyl)cyclopropanesulfonamide hydrochloride]	+ +	< 25	–
CC(C)(C[C@H]1CC[C@@H](NC(=O)OC(C)(C)C)CC1)NC[C@H](O)c1cccc(F)c1 [Example 162, tert-Butyl ((1S,4s)-4-(2-(((R)-2-(3-fluorophenyl)-2-hydroxyethyl)amino)-2-methylpropyl)cyclohexyl)carbamate]	+ + +	< 25	–
CC(C)(C[C@H]1CC[C@@H](N)CC1)NC[C@H](O)c1cccc(F)c1 [Example 163, (R)-2-((1-((1s,4S)-4-Aminocyclohexyl)-2-methylpropan-2-yl)amino)-1-(3-fluorophenyl)ethan-1-ol]	+ + +	< 25	–
CC(=O)N[C@H]1CC[C@@H](CC(C)(C)NC[C@H](O)c2cccc(F)c2)CC1 [Example 164, N-((1S,4s)-4-(2-(((R)-2-(3-Fluorophenyl)-2-hydroxyethyl)amino)-2-methylpropyl)cyclohexyl)acetamide]	+ + +	< 25	–
CC(C)(C[C@H]1CC[C@@H](NC(=O)C(C)(C)C)CC1)NC[C@H](O)c1cccc(F)c1 [Example 165, N-((1S,4s)-4-(2-(((R)-2-(3-Fluorophenyl)-2-hydroxyethyl)amino)-2-methylpropyl)cyclohexyl)pivalamide hydrochloride]	+ + +	< 25	–
CC(C)(C[C@H]1CC[C@@H](NC(=O)C2CC2)CC1)NC[C@H](O)c1cccc(F)c1 [Example 166, N-((1S,4s)-4-(2-(((R)-2-(3-Fluorophenyl)-2-hydroxyethyl)amino)-2-methylpropyl)cyclohexyl)cyclopropanecarboxamide hydrochloride]	+ + +	< 25	–
CC(C)(C[C@H]1CC[C@@H](NC(=O)C2CCC2)CC1)NC[C@H](O)c1cccc(F)c1 [Example 167, N-((1S,4s)-4-(2-(((R)-2-(3-Fluorophenyl)-2-hydroxyethyl)amino)-2-methylpropyl)cyclohexyl)cyclobutanecarboxamide hydrochloride]	+ +	< 25	–
CC(C)(C[C@H]1CC[C@@H](NC(=O)C(F)(F)F)CC1)NC[C@H](O)c1cccc(F)c1 [Example 168, 2,2,2-Trifluoro-N-((1S,4s)-4-(2-(((R)-2-(3-Fluorophenyl)-2-hydroxyethyl)-amino)-2-methylpropyl)cyclohexyl)acetamide hydrochloride]	+ + +	< 25	–
CN(C)C(=O)N[C@H]1CC[C@@H](CC(C)(C)NC[C@H](O)c2cccc(F)c2)CC1 [Example 169, 3-((1S,4s)-4-(2-(((R)-2-(3-Fluorophenyl)-2-hydroxyethyl)amino)-2-methylpropyl)cyclohexyl)-1,1-dimethylurea hydrochloride]	+ + +	25 to 50	–
CC(C)(C[C@H]1CC[C@@H](NS(C)(=O)=O)CC1)NC[C@H](O)c1cccc(F)c1 [Example 170, N-((1S,4s)-4-(2-(((R)-2-(3-Fluorophenyl)-2-hydroxyethyl)amino)-2-methylpropyl)cyclohexyl)methanesulfonamide hydrochloride]	+ + +	< 25	–
CCCS(=O)(=O)N[C@H]1CC[C@@H](CC(C)(C)NC[C@H](O)c2cccc(F)c2)CC1 [Example 171, N-((1S,4s)-4-(2-(((R)-2-(3-Fluorophenyl)-2-hydroxyethyl)amino)-2-methylpropyl)cyclohexyl)propane-1-sulfonamide hydrochloride]	+ + +	< 25	–
CC(C)(C[C@H]1CC[C@@H](NS(=O)(=O)C(F)(F)F)CC1)NC[C@H](O)c1cccc(F)c1 [Example 172, 1,1,1-Trifluoro-N-((1S,4s)-4-(2-(((R)-2-(3-fluorophenyl)-2-hydroxyethyl)-amino)-2-methylpropyl)cyclohexyl)methanesulfonamide hydrochloride]	+ +	< 25	–
CC(C)(C[C@H]1CC[C@@H](NC(=O)OC(C)(C)C)CC1)NC[C@H](O)c1cncc(F)c1 [Example 174, tert-Butyl ((1S,4s)-4-(2-(((R)-2-(5-fluoropyridin-3-yl)-2-hydroxyethyl)-amino)-2-methylpropyl)cyclohexyl)carbamate]	+ + +	< 25	–
